In paper doi:10.1101/2024.09.05.611129v1 (biorxiv, 2024):

Molecular target: MtKatG (Mycobacterium tuberculosis, UniProt P9WIE5)
Sequence (P9WIE5 whole entry): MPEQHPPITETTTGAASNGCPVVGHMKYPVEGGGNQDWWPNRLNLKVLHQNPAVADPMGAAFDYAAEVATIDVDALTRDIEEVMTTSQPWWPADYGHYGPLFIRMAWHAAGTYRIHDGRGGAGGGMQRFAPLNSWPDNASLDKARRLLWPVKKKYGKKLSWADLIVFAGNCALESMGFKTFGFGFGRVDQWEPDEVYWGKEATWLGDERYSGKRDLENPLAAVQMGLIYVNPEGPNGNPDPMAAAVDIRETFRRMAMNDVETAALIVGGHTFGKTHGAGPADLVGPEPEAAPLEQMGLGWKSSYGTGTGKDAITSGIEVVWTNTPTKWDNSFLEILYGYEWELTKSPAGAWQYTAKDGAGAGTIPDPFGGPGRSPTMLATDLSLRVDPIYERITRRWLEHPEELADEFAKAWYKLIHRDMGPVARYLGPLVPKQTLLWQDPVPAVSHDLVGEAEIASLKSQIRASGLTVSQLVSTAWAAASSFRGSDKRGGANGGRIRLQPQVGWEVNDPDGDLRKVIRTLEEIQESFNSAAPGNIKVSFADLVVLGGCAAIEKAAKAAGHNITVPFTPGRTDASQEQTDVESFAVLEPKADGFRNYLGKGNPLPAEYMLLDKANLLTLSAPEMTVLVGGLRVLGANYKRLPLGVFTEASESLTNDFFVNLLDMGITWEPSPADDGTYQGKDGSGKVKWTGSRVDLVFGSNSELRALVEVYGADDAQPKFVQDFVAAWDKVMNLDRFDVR

Which Km does the source give for `CC(C)(C)OO` [t-BuOOH] here?
Its Km is 19 ± 6 mM.
